Test results as given in US11807627B2, “Morphic forms of complement factor D inhibitors” (priority 2018, dated 2023).
Like-named read-outs stand apart in the source and are kept apart here.

Assays:
Type in all cases: physicochemical
[1] = Hygroscopicity / dynamic vapour sorption (DVS); settings: for DVS: hygroscopicity: Table 27A
Experimental: (§1) Approximately, 10-20 mg of sample were placed into a mesh vapour sorption balance pan and loaded into a DVS Intrinsic dynamic vapour sorption balance by Surface Measurement Systems. The sample was subjected to a ramping profile from 40-90% relative humidity (RH) at 10% increments, maintaining the sample at each step until a stable weight had been achieved (dm/dt 0.004%, minimum step length 30 minutes, maximum step length 500 minutes) at 25° C. After completion of the sorption cycle, the sample was dried using the same procedure to 0% RH and then a second sorption cycle back to 40% RH. Two cycles were performed. The weight change during the sorption/desorption cycles were plotted, allowing for the hygroscopic nature of the sample to be determined. XRPD analysis was then carried out on any solid retained.
as §1, with “Approximately, 10” for “Approximately, 10-20”, “sample was” for “sample were”, “a DVS-1” for “a DVS Intrinsic”

[2] = Competitive slurries (Example 11)
Experimental: About 10 mg of Form A, Form B and Form J were weighed separately and the solids were combined into one vial. An appropriate volume of selected solvent was then added to form a slurry. Slurries were then agitated under ambient or elevated temperatures for about 48 hours. Post agitation, solids were isolated using centrifuge filtration and XRPD analysis was collected. Table 23 below details selected solvent systems and volumes used.
Solvent was re-introduced (volumes as per Table 24) to the samples and the samples were agitated for a further 72 hours as no single polymorphic form was returned from the experiments after 48 hours agitation. Solids were isolated using centrifuge filtration and XRPD analysis was collected.
Samples were repeated in 2-propanol and 2-propanol/heptane (70/30% v/v) at 60° C. using the above procedure. Samples were agitated for 24 hours and solvent volumes can be found in Table 24 below. […] Isolation of single forms via competitive slurrying appeared to be solvent dependent, as Forms B and J were produced from acetone and acetonitirile, respsectively. […] Both Forms A and B could be isolated from competitive slurrying experiments from different solvent systems but neither was exclusively predominant at a specific temperature.
An additional competitive slurry experiment was conducted. Approximately 20 mg of Form A and Form B were weighed into separate vials. […]

[3] = Thermal stability by TGA; settings: for Thermal events from SSCI report: mass/weight loss: up to 250° C.
Experimental: TG analyses were performed using a TA Instruments Q5000 IR thermogravimetric analyzer. Temperature calibration was performed using nickel and Alumel™. Each sample was placed in an aluminum pan. The sample was hermetically sealed, the lid pierced, then inserted into the TG furnace. The furnace was heated under nitrogen. The method code on the thermogram is an abbreviation for the start and end temperature as well as the heating rate; e.g., […] means “from 25° C. to 350° C., at 10° C./min”.

[4] = Thermogravimetric/differential thermal analysis (TG/DTA)
Experimental: Approximately, 5 mg of material was weighed into an open aluminium pan and loaded into a simultaneous thermogravimetric/differential thermal analyzer (TG/DTA) and held at room temperature. The sample was then heated at a rate of 10° C./min from 20° C. to 400° C. during which time the change in sample weight occurred was recorded along with any differential thermal events (DTA). Nitrogen was used as the purge gas at a flow rate of 300 cm^3/min.

[5] = Solubility in selected media (FaSSIF, FeSSIF, FaSSGF, pH 4 citrate, pH 6.8 phosphate)
Experimental: Solubility within selected media (FaSSIF, FeSSIF, FaSSGF, pH 4 citrate and pH 6.8 phosphate) was measured to be <0.01 mg/mL.
The pH 4 citrate buffer was prepared by dissolving sodium citrate (987 mg) and citric acid (1.28 g) in 100 mL H2O. The pH was adjusted to 4. The pH 6.8 phosphate buffer was prepared by dissolving dibasic sodium phosphate dihydrate (873 mg) and monobasic sodium phosphate monohydrate (708 mg) in 100 mL H2O. The pH was adjusted to 6.8. The FaSSIF media was prepared with sodium hydroxide (108 mg), sodium chloride (1.55 g) and monobasic sodium phosphate dihydrate (1.12 g) in H2O (0.25 L) and the pH adjusted to 6.5. FaSSIF/FeSSIF/FaSSGF (0.56 g) was dissolved in the buffer and mixed until opalescent. The FeSSIF media was prepared by dissolving sodium hydroxide (1.01 g), sodium chloride (2.96 g) and glacial acetic acid (2.97 g) in H2O (0.25 L) and the pH adjusted to pH 5. FaSSIF/FeSSIF/FaSSGF (2.81 g) was dissolved in the buffer and thoroughly mixed. The FaSSGF media was prepared by dissolving FaSSIF/FeSSIF/FaSSGF (0.06 g) in a solution of sodium chloride (2.00 g) dissolved in H2O (1 L) and mixing thoroughly.

CC(=O)c1nn(CC(=O)N2[C@H](C(=O)Nc3nc(Br)ccc3C)C[C@@]3(C)C[C@@H]23)c2ccc(-c3cnc(C)nc3)cc12 [Compound 3 Form A]
DVS analysis: hygroscopic nature ([1]; 25° C.): hygroscopic
DVS: hygroscopicity [1]: Hygroscopic
DVS total uptake ([1]; at 90% RH, 25° C.): 6.9%
DVS uptake as equivalents of water ([1]; at / up to 90% RH): 2.5 equiv. water
DVS sharp uptake ([1]; between 50-60% RH): 3.0%
DVS uptake as equivalents of water ([1]; between 50-60% RH): 1.0 equiv. water
Relative stability in competitive slurry ([2]; Form A, Form B and Form J, conversion of Form B to Form A in acetone over 72 hours): may be the most stable form
Thermal events from SSCI report: mass/weight loss [3]: 0.8% mass loss
Onset Temp: Melting ([4]; Table 22B): 139.4, melting ° C.
Onset Temp: decomposition ([4]; Table 22B): 209.0 °C
Onset Temp: melting (second event) ([4]; Table 22B): 153.9, ° C.
TG/DTA: Melting ([4]; Table 27A): Melting 139.4 °C
TG/DTA: decomposition ([4]; Table 27A): decomposition 209 °C
TG/DTA: melting (second event) ([4]; Table 27A): melting 153.9° C.,
Mass loss within the TG trace ([4]; up to 250° C.): 0.8%
XRPD Results after stirring in media ([5]; FaSSGF): Form A
solubility ([5]; FaSSGF): <10 µg/mL
solubility ([5]; FaSSGF, fassgf or other biorelevant, thermodynamic from solid, read-out: Solubility: HPLC Result): < 10 µg/mL
XRPD Results after stirring in media ([5]; FaSSIF): Form A
solubility ([5]; FaSSIF): <10 µg/mL
solubility ([5]; FaSSIF, pH 6.5, fassif, thermodynamic from solid, read-out: Solubility: HPLC Result): < 10 µg/mL
XRPD Results after stirring in media ([5]; FeSSIF): Form A
solubility ([5]; FeSSIF): <10 µg/mL
solubility ([5]; FeSSIF, pH 5, fessif, thermodynamic from solid, read-out: Solubility: HPLC Result): < 10 µg/mL
solubility ([5]; aqueous buffer, thermodynamic from solid, FaSSIF, FeSSIF, FaSSGF, pH 4 citrate and pH 6.8 phosphate, read-out: Solubility within selected media): < 10 µg/mL
solubility ([5]; aqueous buffer, thermodynamic from solid, pH 6.8 phosphate buffer, read-out: Solubility: HPLC Result): < 10 µg/mL
solubility ([5]; pH 4): Not detected
Solubility: HPLC Result ([5]; pH 4 citrate buffer): Not detected
XRPD Results after stirring in media ([5]; pH 4 citrate buffer): Form A
XRPD Results after stirring in media ([5]; pH 6.8 phosphate buffer): Form A
solubility ([5]; pH 6.8 phosphate buffer, pH 6.8, aqueous buffer, thermodynamic from solid, read-out: Solubility): < 10 µg/mL

CC(=O)c1nn(CC(=O)N2[C@H](C(=O)Nc3nc(Br)ccc3C)C[C@@]3(C)C[C@@H]23)c2ccc(-c3cnc(C)nc3)cc12 [Compound 3, (1R,3S,5R)-2-(2-(3-acetyl-5-(2-methylpyrimidin-5-yl)-1H-indazol-1-yl)acetyl)-N-(6-bromo-3-methylpyridin-2-yl)-5-methyl-2-azabicyclo[3.1.0]hexane-3-carboxamide]
Hygroscopicity [1]: Non-hygroscopic
Hygroscopicity: moisture uptake ([1]; at 60% RH): < 5%
Thermal Stability by TGA ([3]; to 250° C.): ~0.8% wt loss to 250 °C

CC(=O)c1nn(CC(=O)N2[C@H](C(=O)Nc3nc(Br)ccc3C)C[C@@]3(C)C[C@@H]23)c2ccc(-c3cnc(C)nc3)cc12 [Form B]
DVS analysis: hygroscopic nature ([1]; 25° C.): slightly hygroscopic
DVS: hygroscopicity [1]: Slightly hygroscopic
DVS uptake as equivalents of water ([1]; at / up to 90% RH): 0.1 equiv. water
DVS uptake ([1]; up to 90% RH): 0.26 wt %
Relative stability in competitive slurry ([2]; Form A and Form B in saturated Compound 3 solutions, ambient and elevated temperature, about 2 weeks): likely the most thermodynamically stable form
Thermal events from SSCI report: mass/weight loss [3]: 1.3%
Onset Temp: Melting ([4]; Table 22B): Melting 179.8 °C
TG/DTA: Melting ([4]; Table 27A): Melting 178.4 °C
solubility ([5]; FaSSGF): <10 µg/mL
solubility ([5]; FaSSIF): <10 µg/mL
solubility ([5]; FeSSIF): <10 µg/mL
Solubility in selected media ([5]; pH 4, pH 6.8, FaSSIF, FeSSIF and FaSSGF media): poorly soluble
